According to patent US8956824B2, “Methods for identifying allosteric modulators of ship polypeptides” (British Columbia Cancer Agency Branch, priority 2006, dated 2015):
“Also recorded” adds a separate entry of the source.

How the values were obtained:
[1] = tested on: DNFB-induced ear inflammation; test: Mouse acute cutaneous anaphylaxis model; assay type: in vivo; conditions: topical
Protocol: Mouse acute cutaneous anaphylaxis model. 6-8 week old CD1 mice (University of British Columbia Animal Facility, Vancouver, BC) were sensitized to the hapten DNP by cutaneous application of 25 μL of 0.5% dinitroflourobenzene (DNFB) (Sigma, Oakville, Ont) in acetone to the shaved abdomen of mice for two consecutive days. In the AQX-016A experiments shown in FIG. 2F, 20 μCi of tritiated thymidine [3H]-Tdr (GE Healthcare, Piscataway, N.J.) was injected EP one week after the first DNFB application. [3H]-Tdr labels rapidly dividing cells of the mouse, including neutrophils (21). […] The resulting inflammatory cell infiltration was quantitated by taking a 6mm diameter punch from the ear 1 hr later for dissolution in SOLVABLE™ (Perkin Elmer-Packard, Woodbridge, Ont) and liquid scintillation counting as described (21). The ability of test substances to inhibit mast cell degranulation was then determined by calculating the ratio of [3H]-Tdr in the test (right) ear vs the control (left) ear as described (21). […]
In the later AQX-MN100 experiments, shown in FIG. 3E, the mice were sensitized as above with DNFB. […] Optical density readings at 450 nm were taken over 10 min at 30 s intervals. MPO activity was calculated as described (22) and expressed as Units per mg of protein per mL of lysate. […]

[2] = target: T1, SHIP1 enzyme (Mus musculus, UniProt Q9ES52); test: In vitro SHIP enzyme assay, wild-type SHIP1; assay type: biochemical; conditions: for SHIP1 enzyme activity in vitro (activation): FIG. 1A / 3B; for activation of wild-type SHIP1 enzyme by allosteric activators: PI-3,4-P2 20 μM, AQX-MN100 80 μg/mL=250 μM, 30 μM IP4, FIG. 4B
T1 construct: Full length, wild-type SHIP1 enzyme (wt); made in house; host or cells: 293T cells, transient transfection with pME18S-His-SHIP
T1 sequence (Q9ES52 1-1191): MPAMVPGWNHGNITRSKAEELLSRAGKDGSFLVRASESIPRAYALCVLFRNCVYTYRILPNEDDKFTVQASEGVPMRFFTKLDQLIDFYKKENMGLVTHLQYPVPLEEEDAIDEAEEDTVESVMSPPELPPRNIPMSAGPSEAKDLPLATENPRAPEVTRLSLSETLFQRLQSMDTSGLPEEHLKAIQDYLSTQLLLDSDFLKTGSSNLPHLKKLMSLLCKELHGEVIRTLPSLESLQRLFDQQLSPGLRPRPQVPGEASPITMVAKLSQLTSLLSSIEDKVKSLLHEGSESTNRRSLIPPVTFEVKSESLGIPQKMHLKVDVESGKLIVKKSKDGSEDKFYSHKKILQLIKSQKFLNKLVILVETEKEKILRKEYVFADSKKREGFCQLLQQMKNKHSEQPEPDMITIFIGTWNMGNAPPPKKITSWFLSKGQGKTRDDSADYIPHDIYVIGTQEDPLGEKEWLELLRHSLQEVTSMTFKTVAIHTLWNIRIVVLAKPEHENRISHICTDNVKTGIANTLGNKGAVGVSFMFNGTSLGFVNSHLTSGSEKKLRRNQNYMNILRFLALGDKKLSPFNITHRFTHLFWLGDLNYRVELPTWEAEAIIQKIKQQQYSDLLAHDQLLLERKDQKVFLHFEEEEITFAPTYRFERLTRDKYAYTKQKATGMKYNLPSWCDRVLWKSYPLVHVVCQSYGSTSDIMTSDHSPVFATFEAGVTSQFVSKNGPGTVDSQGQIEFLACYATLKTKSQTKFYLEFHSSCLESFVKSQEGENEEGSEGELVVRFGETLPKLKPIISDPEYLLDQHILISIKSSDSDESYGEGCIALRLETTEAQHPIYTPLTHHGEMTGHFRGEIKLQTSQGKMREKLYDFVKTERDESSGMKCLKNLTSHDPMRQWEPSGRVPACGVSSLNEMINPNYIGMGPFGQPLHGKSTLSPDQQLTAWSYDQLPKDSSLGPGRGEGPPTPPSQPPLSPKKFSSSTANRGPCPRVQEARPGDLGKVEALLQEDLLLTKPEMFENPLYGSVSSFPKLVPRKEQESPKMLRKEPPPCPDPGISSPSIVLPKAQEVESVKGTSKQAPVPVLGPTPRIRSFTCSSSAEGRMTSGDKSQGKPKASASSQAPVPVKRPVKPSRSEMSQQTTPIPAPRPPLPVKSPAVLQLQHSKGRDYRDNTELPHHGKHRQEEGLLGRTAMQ
Description: Production of recombinant SHIP1 enzyme and SHIP1 C2 and PH domains: Recombinant, N-terminal His6 tagged SHIP1 enzyme was expressed in mammalian 293T cells by transient transfection with pME18S-His-SHIP plasmid and purified to >95% homogeneity by Nichelating bead chromatography (Qiagen, Mississauga, Ontario) as assessed by Coomassie Blue visualization of sodium dodecyl sulfate-polyacrylamide gel electrophoresis (SDS-PAGE) separated material. Recombinant SHIP1 C2 domain (amino acid residues 725 to 863) or SHIP1 PH domain (amino acid residues 984-1319) were expressed in E. coli transformed with a pET28C expression vector constructed as described herein. Cultures were induced overnight with 1 mM IPTG, and protein purified from the cell lysates by Ni-chelating bead chromatography was >95% pure by SDS-PAGE analysis.
In vitro SHIP enzyme assay. The SHIP enzyme assay was performed in 96-well microtitre plates with 10 ng of enzyme/well in a total volume of 25 μL of 20 mM Tris HCl, pH 7.5 and 10 mM MgCl2. […] The reaction was allowed to proceed for 20 min at 37° C. and the amount of inorganic phosphate released assessed by the addition of Malachite Green reagent followed by an absorbance measurement at 650 nm (15). SHIP2 enzyme was purchased from Echelon Biosciences (Salt Lake City, Utah) and an equivalent amount of inositol phosphatase activity was used in the in vitro enzyme assay. Enzyme data are expressed as the mean of triplicates+/−SEM. Experiments were performed at least 3 times.

| Molecule | myeloperoxidase (MPO) levels in ears of allergen-challenged mice ([1]; P-value <0.02 vs vehicle) | enhancement of SHIP1 enzyme activity ([2]; % change relative to vehicle control, 2 μM final concentration, FIGS. 8A-B) [%] | SHIP1 enzyme activity in vitro (activation) [2] | activation of wild-type SHIP1 enzyme by allosteric activators [2] | activation of wild-type SHIP1 enzyme by allosteric activators ([2]; listed as PI(3,4)P2) | allergen-induced inflammation (inflammatory cell recruitment to ear, [3H]-Tdr) ([1]; 30 min prior to DNFB, vs vehicle control-treated ear) | activation of SHIP1 relative to Pelorol ([2]; 40 μg/mL, FIG. 1A) [fold] |
| --- | --- | --- | --- | --- | --- | --- | --- |
| Cc1cc(O)cc2c1[C@]1(C)CC[C@H]3C(C)(C)CCC[C@]3(C)[C@H]1C2 [AQX-MN100] | reduced the levels of the inflammatory cell (neutrophil) specific myeloperoxidase enzyme; also recorded: inhibits DNFB-induced MPO in sensitized mice | ~500 | enhanced SHIP1 enzyme activity in vitro; also recorded: activates SHIP enzyme activity in vitro | activated SHIP to the same extent; also recorded: enhanced |  |  |  |
| phosphatidylinositol-3,4-bisphosphate [PI-3,4-P2, reference compound] |  |  |  | activated SHIP to the same extent as AQX-MN100 | enhanced |  |  |
| Cc1cc(O)c(O)c2c1[C@]1(C)CC[C@H]3C(C)(C)CCC[C@]3(C)[C@H]1C2 [AQX-016A] |  |  | increases SHIN enzyme activity in vitro and in vivo |  |  | dramatically inhibited allergen-induced inflammation | 3 |
